The results in this text go back to ChEMBL document CHEMBL3132840 (Medchemcomm, 2014).

The term pIC50 denotes the IC50 on a negative log10 scale, so that one unit is a factor of ten.

Data set [1] has as its target Cholinesterase (Equus caballus, UniProt P81908).
Data set [2] deals with T1, Amine oxidase [flavin-containing] B (Homo sapiens, UniProt P27338).
T1 sequence (P27338 whole entry): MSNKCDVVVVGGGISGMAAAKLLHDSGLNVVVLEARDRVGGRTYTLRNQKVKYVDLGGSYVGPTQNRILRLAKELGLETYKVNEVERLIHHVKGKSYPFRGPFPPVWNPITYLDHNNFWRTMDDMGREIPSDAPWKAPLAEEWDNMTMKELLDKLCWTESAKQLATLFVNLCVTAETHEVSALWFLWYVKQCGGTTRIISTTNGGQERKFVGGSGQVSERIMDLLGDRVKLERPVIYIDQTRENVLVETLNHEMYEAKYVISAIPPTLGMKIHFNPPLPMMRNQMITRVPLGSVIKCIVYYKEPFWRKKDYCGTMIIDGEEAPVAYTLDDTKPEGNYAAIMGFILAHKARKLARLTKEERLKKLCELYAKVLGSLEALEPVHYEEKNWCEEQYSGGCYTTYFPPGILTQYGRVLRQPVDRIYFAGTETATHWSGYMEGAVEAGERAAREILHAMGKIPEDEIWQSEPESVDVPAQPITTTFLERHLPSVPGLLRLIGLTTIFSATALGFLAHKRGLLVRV

Data set [3] has as its target T2, Amine oxidase [flavin-containing] A (Homo sapiens, UniProt P21397).
T2 sequence (P21397 whole entry): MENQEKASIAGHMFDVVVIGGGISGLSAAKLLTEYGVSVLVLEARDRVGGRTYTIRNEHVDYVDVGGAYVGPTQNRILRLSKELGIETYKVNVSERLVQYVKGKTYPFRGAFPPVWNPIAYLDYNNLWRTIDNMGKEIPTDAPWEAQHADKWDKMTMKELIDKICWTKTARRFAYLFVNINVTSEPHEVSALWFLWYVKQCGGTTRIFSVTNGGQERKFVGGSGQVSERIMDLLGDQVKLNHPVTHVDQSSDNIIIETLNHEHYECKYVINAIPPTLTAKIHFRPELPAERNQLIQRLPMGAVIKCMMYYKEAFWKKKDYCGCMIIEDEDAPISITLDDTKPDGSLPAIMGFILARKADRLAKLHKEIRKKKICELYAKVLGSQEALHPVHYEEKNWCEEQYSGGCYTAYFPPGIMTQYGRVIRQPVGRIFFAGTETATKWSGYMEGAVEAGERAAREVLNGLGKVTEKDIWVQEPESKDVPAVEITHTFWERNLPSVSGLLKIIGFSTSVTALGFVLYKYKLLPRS

For data set [4], the target named is Acetylcholinesterase (Electrophorus electricus, UniProt O42275). Briefly: Inhibition of electric eel AChE using acetylthiocholine iodide as substrate incubated for 6 mins prior to substrate addition measured after 60 to 180 secs by Ellman's method. On the technique in general: Ellman's reagent forms a yellow product with free thiols.
Acetylcholinesterase, sequence (O42275 whole entry): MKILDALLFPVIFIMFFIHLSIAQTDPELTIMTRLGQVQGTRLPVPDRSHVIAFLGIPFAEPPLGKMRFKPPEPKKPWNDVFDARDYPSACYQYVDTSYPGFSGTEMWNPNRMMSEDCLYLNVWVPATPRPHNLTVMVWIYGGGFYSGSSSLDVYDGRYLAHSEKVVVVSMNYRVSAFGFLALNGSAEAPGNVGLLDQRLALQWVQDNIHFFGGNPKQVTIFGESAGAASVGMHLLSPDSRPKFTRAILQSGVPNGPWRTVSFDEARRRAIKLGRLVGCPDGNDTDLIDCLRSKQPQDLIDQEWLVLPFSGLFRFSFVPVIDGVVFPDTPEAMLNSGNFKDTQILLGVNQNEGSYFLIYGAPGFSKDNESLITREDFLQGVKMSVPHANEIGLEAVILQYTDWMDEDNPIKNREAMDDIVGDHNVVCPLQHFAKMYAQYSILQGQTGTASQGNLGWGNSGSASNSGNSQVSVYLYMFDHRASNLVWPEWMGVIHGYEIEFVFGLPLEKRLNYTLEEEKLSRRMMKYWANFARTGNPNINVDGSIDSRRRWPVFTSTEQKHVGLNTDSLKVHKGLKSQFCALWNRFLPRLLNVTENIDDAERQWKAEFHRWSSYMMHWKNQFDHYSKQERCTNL
The species entered for data set [5] is Homo sapiens. Briefly: Selectivity index, ratio of IC50 for human MAO-B to IC50 for human MAO-A.
The target in data set [6] is Acetylcholinesterase (Electrophorus electricus) (UniProt O42275). Briefly: Mixed-type inhibition of electric eel AChE using acetylthiocholine iodide as substrate incubated for 15 mins prior to substrate addition by Lineweaver-Burk plot analysis.
Acetylcholinesterase (Electrophorus electricus), sequence (O42275 24-633 limits assumed): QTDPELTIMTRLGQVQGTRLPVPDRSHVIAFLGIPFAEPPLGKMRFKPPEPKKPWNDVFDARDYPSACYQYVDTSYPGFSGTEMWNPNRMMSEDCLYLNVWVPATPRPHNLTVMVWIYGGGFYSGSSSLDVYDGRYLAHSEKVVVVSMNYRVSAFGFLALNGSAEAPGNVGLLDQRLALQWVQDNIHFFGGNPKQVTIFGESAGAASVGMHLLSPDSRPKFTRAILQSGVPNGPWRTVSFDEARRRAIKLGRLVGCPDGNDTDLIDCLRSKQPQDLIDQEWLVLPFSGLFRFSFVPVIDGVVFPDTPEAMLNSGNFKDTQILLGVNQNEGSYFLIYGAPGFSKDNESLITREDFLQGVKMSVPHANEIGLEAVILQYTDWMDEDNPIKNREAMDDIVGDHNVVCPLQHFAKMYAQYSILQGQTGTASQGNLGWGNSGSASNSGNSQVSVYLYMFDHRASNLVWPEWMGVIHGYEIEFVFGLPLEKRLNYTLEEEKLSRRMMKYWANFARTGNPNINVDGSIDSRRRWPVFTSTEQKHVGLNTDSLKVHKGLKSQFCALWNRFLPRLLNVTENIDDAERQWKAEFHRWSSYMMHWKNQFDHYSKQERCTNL
A short description of data set [7]: Cytotoxicity against human SH-SY5Y cells assessed as cell viability at 50 uM after 24 hrs by MTT assay. It counts as cell-based. The conditions noted are these: read-out: Activity. (Tetrazolium assays rely on reduction of a dye to a coloured formazan, in cell work by metabolically active cells.)
Data set [8] in a line: Cytotoxicity against human SH-SY5Y cells assessed as cell viability at 10 uM after 24 hrs by MTT assay. As to conditions: read-out: Activity. The format is cell-based.
The nature of data set [9]: Cytotoxicity against human SH-SY5Y cells assessed as cell viability at 25 uM after 24 hrs by MTT assay. The conditions noted are these: read-out: Activity. It counts as cell-based.
Data set [10] is described as follows: Cytotoxicity against human SH-SY5Y cells assessed as cell viability at 1 uM after 24 hrs by MTT assay. The format is cell-based. The conditions noted are these: read-out: Activity.
A short description of data set [11]: Cytotoxicity against human SH-SY5Y cells assessed as cell viability at 5 uM after 24 hrs by MTT assay. It counts as cell-based. As to conditions: read-out: Activity.

pIC50: −log10 of the molar value. Calls of active or inactive are those of the source. The rule behind the calls is not given here.

Cholinesterase, sequence (P81908 whole entry): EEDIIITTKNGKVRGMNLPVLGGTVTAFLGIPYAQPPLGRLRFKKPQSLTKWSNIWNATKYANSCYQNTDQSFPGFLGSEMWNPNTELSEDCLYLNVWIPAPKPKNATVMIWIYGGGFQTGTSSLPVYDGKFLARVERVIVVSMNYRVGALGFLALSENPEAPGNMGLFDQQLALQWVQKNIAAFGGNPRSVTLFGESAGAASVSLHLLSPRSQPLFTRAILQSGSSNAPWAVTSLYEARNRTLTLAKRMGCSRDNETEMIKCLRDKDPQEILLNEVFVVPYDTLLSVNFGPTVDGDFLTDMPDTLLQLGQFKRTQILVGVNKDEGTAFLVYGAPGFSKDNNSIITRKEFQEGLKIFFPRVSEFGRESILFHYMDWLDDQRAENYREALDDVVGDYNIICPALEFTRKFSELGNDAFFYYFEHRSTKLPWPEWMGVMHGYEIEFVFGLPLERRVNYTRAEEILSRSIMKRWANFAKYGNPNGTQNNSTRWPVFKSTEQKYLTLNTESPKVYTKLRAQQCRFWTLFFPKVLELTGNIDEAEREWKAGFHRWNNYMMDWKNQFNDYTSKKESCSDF

Take `COc1cc(/C=C/c2ccc(OCCCCCCN3CCCCC3)cc2)cc(OC)c1`: the negative-log IC50 (pIC50) in data set [1] was 4.97; in data set [2], 4.85; in data set [3], 4.53; in [4], 5.30. In data set [5], the Ratio IC50 is 0.48.

For the compound `COc1cc(/C=C/c2ccc(OCCCCCCN(C)C)cc2)cc(OC)c1`, the pIC50 is 4.99 in [1], 5.12 in data set [2], 4.43 in data set [3] and 5.09 in [4]. Further, in data set [5], the Ratio IC50 came out at 0.2.

Take `COc1cc(/C=C/c2ccc(OCCCCCCCN(C)Cc3ccccc3)cc2)cc(OC)c1`: the pIC50 in [1] was 4.38; in data set [2], 4.20; in data set [3] it was less than 4.00; in data set [4] it was 4.63. Also, the Ratio IC50 in data set [5] is less than 0.64.

On to `COc1cc(/C=C/c2ccc(OCCCCCCN(C)Cc3ccccc3)cc2)cc(OC)c1`, for which the pIC50 was 4.58 in data set [1], 4.39 in data set [2], 4.04 in [3] and 4.93 in data set [4]. Moreover, in [5], the Ratio IC50 stood at 0.45.

Take `CCN(CCCCCCOc1ccc(/C=C/c2cc(OC)cc(OC)c2)cc1)Cc1ccccc1`: the pIC50 in [1] was 5.44; in data set [2], 4.23; in [3], 4.05; in [4] it was 5.81. In addition, the inhibition result in [6] was “Active”. Besides, in [5], the Ratio IC50 was 0.65.

For `Oc1ccc(/C=C/c2cc(O)cc(O)c2)cc1` [RESVERATROL], the negative logarithm of the IC50 (pIC50) in data set [1] was 3.12; in data set [4] it was 3.78.

As for `COc1cc(/C=C/c2ccc(OCCCN(C)Cc3ccccc3)cc2)cc(OC)c1`, the pIC50 in [1] is 4.11; in data set [2], 5.30; in [3], less than 4.00; in [4], 4.24. Further, the Ratio IC50 in data set [5] is less than 0.5.

For `COc1cc(/C=C/c2ccc(OCCCCN(C)Cc3ccccc3)cc2)cc(OC)c1`, the negative-log IC50 (pIC50) was 4.39 in data set [1], 4.46 in data set [2], less than 4.00 in data set [3] and 4.22 in data set [4]. Moreover, the Ratio IC50 in data set [5] is less than 0.35.

In the case of `CCN(CCCCCCOc1ccc(/C=C/c2cc(OC)cc(OC)c2)cc1)Cc1cccc(OC)c1`, the negative-log IC50 (pIC50) in data set [1] was less than 4.00; in [2], less than 4.00; in data set [3] it was less than 4.00; in data set [4], 4.15.

`COc1cc(/C=C/c2ccc(OCCCCCCN3CCCCC3C)cc2)cc(OC)c1` (stereo unspecified): the pIC50 is 5.00 in data set [1], 4.79 in [2], 4.61 in [3] and 5.39 in data set [4]. Besides, the Ratio IC50 in data set [5] worked out at 0.67.

As to `CCN(CC)CCCCCCOc1ccc(/C=C/c2cc(OC)cc(OC)c2)cc1`, the pIC50 in [1] was 4.88; in data set [2], 5.00; in [3], 4.48; in data set [4] it was 5.38. Besides, the Ratio IC50 in data set [5] turned out to be 0.31.

Turning to `CCCN(CCC)CCCCCCOc1ccc(/C=C/c2cc(OC)cc(OC)c2)cc1`, the pIC50 in data set [1] is 5.13; in data set [2], 4.03; in [3], 4.05; in data set [4] it was 4.92. Also, the Ratio IC50 in [5] was determined as 1.03.

For `CCN(CCCCCCOc1ccc(/C=C/c2cc(OC)cc(OC)c2)cc1)Cc1ccc(F)cc1`, the negative-log IC50 (pIC50) in data set [1] was 4.07; in data set [2], less than 4.00; in data set [3], less than 4.00; in data set [4] it was 4.03.

For `COc1cc(/C=C/c2ccc(OCCN(C)Cc3ccccc3)cc2)cc(OC)c1`, the negative logarithm of the IC50 (pIC50) was 4.05 in [1], 4.05 in [2], less than 4.00 in data set [3] and 4.10 in data set [4]. Besides, the Ratio IC50 in [5] was less than 0.89.

As to `CCN(CCCCCCOc1ccc(/C=C/c2cc(OC)cc(OC)c2)cc1)Cc1ccccc1F`, the pIC50 in [1] was 4.28; in [2], less than 4.00; in data set [3], less than 4.00; in data set [4] it was 4.06.

Consider `COc1cc(/C=C/c2ccc(OCCCCCCN3CCC(O)CC3)cc2)cc(OC)c1`, for which the pIC50 in data set [1] was 4.64; in [2], 4.84; in data set [3], less than 4.00; in data set [4], 4.76. Moreover, in data set [5], the Ratio IC50 is less than 0.14.

On to `CCN(CCCCCCOc1ccc(/C=C/c2cc(OC)cc(OC)c2)cc1)Cc1ccccc1OC`, for which the pIC50 in [1] is 5.64; in data set [2] it was less than 4.00; in [3] it was less than 4.00; in data set [4] it was 4.26.

Regarding `COc1cc(/C=C/c2ccc(OCCCCCN(C)Cc3ccccc3)cc2)cc(OC)c1`, the negative logarithm of the IC50 (pIC50) was 4.36 in data set [1], 4.79 in [2], 4.01 in [3] and 4.41 in data set [4]. Moreover, the Ratio IC50 in data set [5] was 0.16.

Regarding `CCN(CCCCCCOc1ccc(/C=C/c2cc(OC)cc(OC)c2)cc1)Cc1cccc(F)c1`, the pIC50 in data set [1] was 4.28; in [2], 4.01; in data set [3], less than 4.00; in data set [4], 4.11. The Ratio IC50 in [5] is less than 0.97.

With `COc1cc(/C=C/c2ccc(OCCCCCCN3CCCC3)cc2)cc(OC)c1`, in data set [7], the viability at 24 h, 50 µM was determined as 90.8%. Further, the pIC50 in data set [1] is 5.09; in data set [2] it was 4.91; in data set [3], 4.75; in [4], 5.18. Moreover, the viability at 24 h, 10 µM in [8] worked out at 94.4%. For the same compound, the viability at 24 h, 25 µM in data set [9] turned out to be 93.2%. Also, in data set [10], the viability at 24 h, 1 µM worked out at 97%. For the same compound, the viability at 24 h, 5 µM in data set [11] is 95.6%. Also, the Ratio IC50 in data set [5] was determined as 0.7.

Regarding `COc1cc(/C=C/c2ccc(OCCCCCCCCN(C)Cc3ccccc3)cc2)cc(OC)c1`, the negative-log IC50 (pIC50) was 4.33 in data set [1], less than 4.00 in data set [2], less than 4.00 in data set [3] and 4.58 in data set [4].

Turning to `COc1cc(/C=C/c2ccc(OCCCCCCN3CCOCC3)cc2)cc(OC)c1`, the pIC50 in data set [1] is 4.46; in data set [2], less than 4.00; in data set [3], less than 4.00; in data set [4] it was 4.61.

On to `CCN(CCCCCCOc1ccc(/C=C/c2cc(OC)cc(OC)c2)cc1)Cc1ccc(OC)cc1`, for which the pIC50 was less than 4.00 in [1], less than 4.00 in [2], less than 4.00 in [3] and 4.05 in data set [4].
